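A five-concentration, 48-hour dose response in 96-well plates underlies each endpoint, interpolated linearly between surrounding concentrations. At the TGI there is no net growth.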
Tests used:
Test in all cases: growth of human tumour cells (NCI), 48 h
A549 NSCLC = tested on: A549 NSCLC
BT-549 breast = tested on: BT-549 breast
LOX IMVI melanoma = tested on: LOX IMVI melanoma
MCF7 breast = tested on: MCF7 breast
NCI-H460 lung = tested on: NCI-H460 lung
OVCAR-8 ovarian = tested on: OVCAR-8 ovarian
RPMI-8226 leukemia = tested on: RPMI-8226 leukemia
SK-OV-3 ovarian = tested on: SK-OV-3 ovarian
SNB-19 CNS = tested on: SNB-19 CNS
U251 CNS = tested on: U251 CNS

| SMILES | TGI (A549 NSCLC) [µM] | TGI (BT-549 breast) [µM] | TGI (LOX IMVI melanoma) [µM] | TGI (MCF7 breast) [µM] | TGI (NCI-H460 lung) [µM] | TGI (OVCAR-8 ovarian) [µM] | TGI (RPMI-8226 leukemia) [µM] | TGI (SK-OV-3 ovarian) [µM] | TGI (SNB-19 CNS) [µM] | TGI (U251 CNS) [µM] |
| --- | --- | --- | --- | --- | --- | --- | --- | --- | --- | --- |
| O=C(O)/C=C(/CC(=O)O)C(=O)O | 43.2 | 43.7 | 47.1 | 39.3 | > 100 | 46.6 | 37 | 47.6 | 62.3 | 41.2 |
| CS(=O)(=O)OCCN1CCC2(CC1)SSC1(CCN(CCOS(C)(=O)=O)CC1)S2 | > 100 | > 100 | 97.8 | 44.9 | > 100 | > 100 | 29.6 | > 100 | > 100 | > 100 |
| Cc1cc2ccccc2n1CC(=O)NCC(C)C | > 100 | > 100 | > 100 | > 100 | > 100 | > 100 | > 100 | > 100 | > 100 | > 100 |
| N#Cc1c(Nc2ccc(F)cc2)[n+]([O-])c2ccc(Cl)cc2[n+]1[O-] | 35.9 | 74.4 | 4.27 | 6.1 | 7.97 | > 100 | 9.97 | 36.7 | > 100 | 19.1 |

— PubChem BioAssay (NCI)
